For one series, the system named is mice. Put plainly: Repeat-dose toxicity study in mice. The class given is in vivo. The note with it: subcutaneous. On the procedure:
(§1) Pre-clinical toxicology studies were conducted in 2 species (rodent/mice and non-rodent/dogs). Multiple high doses of C34-PEG4-Chol, up to 12 mg/kg or 10 x the maximum proposed human dose, were administered daily in mice and twice weekly (the intended frequency in humans) in dogs for 14 days, with a 7-day recovery period for both species. […] Toxicology results were analysed independently by the Medicines and Healthcare Regulatory Authority (MHRA), UK before a decision was made to proceed with trial in humans.
(§2) Repeat-dose toxicity studies were conducted in mice (n = 20 at 6 mg/kg/day, n = 20 at 12 mg/kg/day) and dogs (n = 6 at 6 mg/kg/day, n = 6 at 12 mg/kg/day). The subcutaneous route of administration was selected for both species. The highest dose of 12 mg/kg/day was based on the maximal achievable dose with the formulation, and corresponded to 10x the maximum proposed human dose (80 mg, 1.15 mg/kg). No premature decedents occurred in either species. Following observation, animals were euthanised.

Series [1] is described as follows: Repeat-dose toxicity study in mice. The class given is in vivo. The note with it: mouse, in vivo, sc, subcutaneous, daily for 14 days, 7-day recovery, read-out: No-observed-adverse-effect-level (NOAEL). On the procedure:
as §1, §2

Series [2] in a line: in vivo. To be noted: mouse, C57BL/6 mice; for AUC(0-inf): plasma LC-MS, mean of three animals per point. On the procedure: (§3) C34-PEG4-Chol first in man – Supplementary Information
(§4) Supplementary Information 2:
(§5) Preclinical Pharmacokinetics of C34-PEG4-Chol […]
(§6) C34-PEG4-Chol was formulated in 10 mM phosphate buffered saline (pH 7.2). The concentration of C34-PEG4-Chol in plasma samples was determined by LC-MS as previously […]
The PK of C34-PEG4-Chol in C57BL/6 mice following intravenous (IV) and subcutaneous (SC) dosing is shown in […]
Figure S2: Pharmacokinetics of C34-PEG4-Chol in mice. 3.5 mg/kg or 1.0 mg/kg (SC and IV, respectively) of C34-PEG4-Chol in 10mM phosphate buffered saline (PBS) were administered to C57BL/6 mice: volume of administration 5 mL/kg and 2 mL/kg for SC and IV administration, respectively. The concentration of the dosing solution was determined immediately after dosing with the same analytical method utilized to monitor peptide plasma concentration with time, and the analytical curves were adjusted accordingly (SC dose 0.56 mg/mL, theor.
0.5 mg/mL; IV dose 0.62 mg/mL, theor. 0.7 mg/mL). Each data point is the mean of three animals.
(1 picture or pasted object on this page, not shown here) […]

A further series concerns dogs. Put plainly: Repeat-dose toxicity study in dogs. To be noted: subcutaneous. Format: in vivo. On the procedure: as §1, §2
The nature of series [3]: in vivo. To be noted: rhesus monkey, rhesus monkeys; for AUC(0-inf): plasma LC-MS, mean of three animals per point. On the procedure: as §3, §4, §5, §6
Figure S4. Pharmacokinetics of C34-PEG4-Chol in rhesus monkeys 2.0 mg/kg or 1.0 mg/kg (SC and IV administration, respectively) of C34-PEG4-Chol in 10mM phosphate buffered saline (PBS) were administered to rhesus monkeys: volume of administration 0.5 mL/kg. The concentration of the dosing solution was determined immediately after dosing with the same analytical method utilized to monitor peptide plasma concentration with time, and the analytical curves were adjusted accordingly. Each data point is the mean of three animals.
Table S4. Calculated pharmacokinetics parameters of C34-PEG4-Chol in rhesus monkeys, following intravenous (IV) and subcutaneous (SC) administration. […]

Where [4] appears, read: IV 1.0 mg/kg, read-out: t½ (converted).

“Also recorded” adds a separate entry of the source. Like-named read-outs stand apart in the source and are kept apart here.

Consider `CC[C@H](C)[C@H](NC(=O)[C@H](CC(C)C)NC(=O)[C@H](CO)NC(=O)[C@H](Cc1c[nH]cn1)NC(=O)[C@@H](NC(=O)[C@H](CC(C)C)NC(=O)[C@H](CO)NC(=O)[C@@H](NC(=O)[C@H](Cc1ccc(O)cc1)NC(=O)[C@H](CC(N)=O)NC(=O)[C@H](CC(N)=O)NC(=O)[C@@H](NC(=O)[C@H](CCC(=O)O)NC(=O)[C@H](CCCNC(=N)N)NC(=O)[C@H](CC(=O)O)NC(=O)[C@H](Cc1c[nH]c2ccccc12)NC(=O)[C@H](CCC(=O)O)NC(=O)[C@H](CCSC)NC(=O)[C@H](Cc1c[nH]c2ccccc12)NC(C)=O)[C@@H](C)CC)[C@@H](C)O)[C@@H](C)CC)C(=O)N[C@@H](CCC(=O)O)C(=O)N[C@@H](CCC(=O)O)C(=O)N[C@@H](CO)C(=O)N[C@@H](CCC(N)=O)C(=O)N[C@@H](CC(N)=O)C(=O)N[C@@H](CCC(N)=O)C(=O)N[C@@H](CCC(N)=O)C(=O)N[C@@H](CCC(=O)O)C(=O)N[C@@H](CCCCN)C(=O)N[C@@H](CC(N)=O)C(=O)N[C@@H](CCC(=O)O)C(=O)N[C@@H](CCC(N)=O)C(=O)N[C@@H](CCC(=O)O)C(=O)N[C@@H](CC(C)C)C(=O)N[C@@H](CC(C)C)C(=O)NCC(=O)N[C@@H](CO)C(=O)NCC(=O)N[C@@H](CSCC(=O)NCCOCCOCCOCCOCCC(=O)O[C@H]1CC[C@@]2(C)C(=CC[C@H]3[C@@H]4CC[C@H]([C@H](C)CCCC(C)C)[C@@]4(C)CC[C@@H]32)C1)C(N)=O` [C34-PEG4-Chol], for which, in the series with mice, the “Injection site reactions (ISRs)” value is “had not been observed”. In addition, the Tolerability entry with mice (up to 12 mg/kg/day for 14 days) was “well tolerated”; with dogs (6 and 12 mg/kg, 14 days) it was “well tolerated”. The NOAEL at 336 h in series [1] was 12 mg/kg/day. Besides, the values for the clearance in the series “in vivo [2]” (IV 1.0 mg/kg) and in the series “in vivo [3]” (IV 1.0 mg/kg) were 0.29 mL/min/kg and 0.078 mL/min/kg, respectively. For the same molecule, the AUC(0-inf) was 10.8 µM·h in the series “in vivo [2]” (IV 1.0 mg/kg in 10 mM PBS), 11.5 µM·h in “in vivo [2]” (SC 3.5 mg/kg in 10 mM PBS), 41.5 µM·h in “in vivo [3]” (IV 1.0 mg/kg in 10 mM PBS) and 37.5 µM·h in the series “in vivo [3]” (SC 2.0 mg/kg in 10 mM PBS). Besides, the Vd in “in vivo [2]” (IV 1.0 mg/kg, read-out: Vdss) worked out at 0.05 L/kg; in the series “in vivo [3]” (IV 1.0 mg/kg, read-out: Vdss) it was 0.055 L/kg. In addition, the figures for the half-life in “in vivo [2]” (setting [4]) and in “in vivo [3]” (setting [4]) were 1.97 h and 8.5 h, respectively. For the same molecule, the Cmax in “in vivo [2]” (SC 3.5 mg/kg) was 1120 nM; in the series “in vivo [3]” (SC 2.0 mg/kg) it was 1150 nM. In addition, the time of peak concentration (Tmax) was determined as 5.3 h in the series “in vivo [2]” (SC 3.5 mg/kg) and 6.7 h in the series “in vivo [3]” (SC 2.0 mg/kg). Also, the figures for the bioavailability in the series “in vivo [2]” (SC 3.5 mg/kg) and in the series “in vivo [3]” (SC 2.0 mg/kg) were 30.3% and 45.3%, respectively. In addition, the Injection site findings entry in the series on dogs (also seen in controls, greater severity with the peptide) is “some subcutaneous inflammation at the injection sites; also recorded: mild and reversible”.

As usually defined, the NOAEL is the highest dose or exposure tested at which no adverse effect was seen. The term clearance denotes the volume of plasma or blood freed of the substance per unit of time. A high value points to a high capacity for elimination. One may read the AUC(0-inf) as total exposure, with the tail of the curve extrapolated. What is called Cmax is the highest concentration seen after dosing. Broadly, the Tmax is the time at which the peak concentration occurs. For orientation: bioavailability means the share of a dose that reaches the circulation, judged against a reference dose that is usually intravenous. A lower bioavailability goes with little systemic uptake.

For the origin of these results see article PMC5572697, “A first-in-human study of the novel HIV-fusion inhibitor C34-PEG4-Chol” (Scientific Reports, 2017).
